Results from patent US5332731A, “Cephalosporin derivatives” (Meiji Seika Kaisha, Ltd., priority 1989, dated 1994).

Columns and labels:
[1] = recovery in urine of mice after oral administration (paper-disc assay); type: in vivo, mice of ICR-strain; details: ICR mice, male, 0.5 mg per mouse oral; 0-4 h; molar %, as free carboxylic acid; averaged
Description: Thus, some tests were made to evaluate the amount or rate of the cephalosporin compound of this invention which can be recovered as the antibacterially active compound from the urine after it was orally given to mice.
The test compounds estimated in this test for their rate of recovery from urine are Compounds Nos. 2, 4, 6, 8, 10, 12, 14, 16, 18, 20, 22, 24, 26, 28, 30, 32, 34, 36 and 38 identified hereinbefore which are the particular examples of the cephalosporin derivative of general formula (I) of this invention and which are in the form of the pivaloyloxymethyl ester.
To mice of ICR-strain (male, 4-weeks-aged, five mice in each group) was orally administered the test compound identified above at a dosage of 0.5 mg per mouse. By the end of 4 hours after the administration of the test compound, all the amounts of the urine excreted by the treated mice were collected together, and the total quantity of the cephalosporin compound of this invention (as the free carboxylic acid form) in the urine so collected was determined according to a paper-disc assay method using Escherichia coli K-12 8236 strain as the assay strain. […]

oral toxicity in mice = details: mouse, in vivo, oral administration, read-out: oral dosage tolerated without exhibiting toxic symptoms
Protocol: The new cephalosporin derivative of this invention may be administered orally at a unit dose of 100 mg to 250 mg to an adult human patient four times a day, for a guideline. However, precise dosage of the new cephalosporin is determinable through preliminary routine experiments, depending on the body weight, ages, sex and other various parameters of patients as well as the nature of the bacterial infections to be treated, and so on.

Row | SMILES | Rate of recovery of test compound remaining in urine collected during 0 to 4 hours after oral administration [1] | NOAEL (oral toxicity in mice) [mg/kg]
1 | CC(C)(C)C(=O)OCOC(=O)C1=C(SCC2CCOCC2)CS[C@@H]2C(NC(=O)/C(=N\O)c3csc(N)n3)C(=O)N12 (some centres unmarked) [Compound No. 38, pivaloyloxymethyl 7-[(Z)-2-(2-aminothiazol-4-yl)-2-hydroxyiminoacetamido]-3-(tetrahydropyran-4-yl) methylthio-3-cephem-4-carboxylate] | Less than detectable amount | 
2 | CO/N=C(\C(=O)NC1C(=O)N2C(C(=O)OCOC(=O)C(C)(C)C)=C(SCC3COCO3)CS[C@H]12)c1csc(N)n1 (some centres unmarked) [Compound No. 30, pivaloyloxymethyl 7-[(Z)-2-(2-aminothiazol-4-yl)-2-methoxyiminoacetamido]-3-(1,3-dioxolan-4-yl) methylthio-3-cephem-4-carboxylate] |  | 3000
